The source of these data is ChEMBL document CHEMBL1201862, “PubChem BioAssay data set” (2004).

One may read the IC50 as the concentration that gives 50% inhibition. In general, CC50 refers to the concentration giving 50% cytotoxicity. What is called AC50 is the midpoint of the concentration-response curve, whichever way the signal moves. In general, EC50 refers to the concentration needed to bring the measured effect to its halfway point. Usually Ki stands for the dissociation constant of the complex between target and ligand, obtained from inhibition or displacement.

Test [1] in a line: A Cell Based Assay for the Identification of Probe candidate Compounds with Anti- Venezuelan Equine Encephalitis virus. [Related pubchem assays: 2409, 2419, 1621, 2238, 2405, 2024, 2065, 2402, 2414, 1635, 1650, 2244 ]. The class given is functional.
Test [2] deals with Vero. The test is described as follows: Vero 76 cell viability after compound exposure – Vero 76 cells, synthesized analogs, cytotoxicity control for West Nile virus antiviral project, SAR follow-up (AID 2414). In kind it is functional. The note with it: Chlorocebus sabaeus.
Test [3] has as its system Vero. Briefly: host cell viability loss, Vero E6 – synthesized analogs, cytotoxicity control for West Nile virus antiviral project, SAR follow-up (AID 2244). The class given is functional. Particulars: Chlorocebus sabaeus.
Test [4] relates to Vero. The test is described as follows: Vero cell viability after compound exposure – synthesized analogs, set II, cytotoxicity control for West Nile virus antiviral project, SAR follow-up (AID 2402). In kind it is functional. The note with it: Chlorocebus sabaeus.
Test [5] addresses Dual specificity tyrosine-phosphorylation-regulated kinase 1A (Rattus norvegicus, UniProt Q63470). In kind it is biochemical, Homo sapiens.
The nature of test [6]: Luminescence Cell-Based Dose Response HTS to Identify Inhibitors of 5'UTR Stem-Loop Driven Prion Protein mRNA Translation in H4 Neuroglioblastoma Cells. [Related pubchem assays: 1827 (Project Summary), 1813 (Primary HTS)]. In kind it is functional.
The target of test [7] is Mitogen-activated protein kinase 10 (Homo sapiens, UniProt P53779). Briefly: Dose response biochemical screening assay for inhibitors of c-Jun N-Terminal Kinase 3 (JNK3). [Related pubchem assays: 746 ].
Test [8] has as its target T1, Luciferin 4-monooxygenase (Photinus pyralis, UniProt P08659). The test is described as follows: Counter Screen for Luciferase-based Assay Positives. [Related pubchem assays: 620, 618, 411 ].
A short description of test [9]: alpha-synuclein stem-loop translation blockers – luminescence, H4 neuroglioblastoma cells, dose confirmation, confirmation (AID 2454).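 Note: H4 neuroglioblastoma cells carrying an alpha-synuclein 5'UTR luciferase reporter; potency for inhibition of the luciferase signal.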 The class given is functional, cell-based.
For test [10], the system named is HT-1080. The test is described as follows: HT1080 cell viability loss – fluorescence readout (AID 620). The class given is functional, cell-based. Particulars: Homo sapiens.
The nature of test [11]: HEK-293T viability loss after treatment – luminescence, T-cell screen hits, cytotoxicity control for TCR NF-kB inhibitor project, dose response (AID 489026).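 Note: cells exposed to compound about 14 hours before the viability readout.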 In kind it is functional, cell-based.
The nature of test [12]: cells. In kind it is functional, cell-based.
A short description of test [13]: luciferase reporter signal suppression in cells – H4 neuroglioma cells, luminescence, dose response (AID 1990). In kind it is functional, cell-based. A general note: In a reporter assay the amount or activity of a reporter protein is the signal.
The nature of test [14]: Luminescence Cell-Based Dose Confirmation HTS to Identify Inhibitors of Platelet Dense Granule Release. [Related pubchem assays: 1663 (Primary HTS), 1678 (Summary of Project)]. In kind it is functional.
Test [15] can be described thus: alpha-synuclein stem-loop luciferase translation blockers – H4 neuroglioma cells, luminescence, confirmation (AID 1988). In kind it is functional, cell-based.
Test [16] has as its target T1, Luciferin 4-monooxygenase. The test is described as follows: inhibition of purified Photinus pyralis luciferase – biochemical, luminescence, dose response (AID 1891).
A short description of test [17]: Luminescence-based counterscreen assay for KLF5 inhibitors: dose response cell-based high throughput screening assay to identify cytotoxic compounds using the IEC-6 intestinal epithelial cell line. [Related pubchem assays: 1700 (Primary screen.), 1834 (Confirmation screen.), 1858 (Summary AID.), 1905 (Counterscreen.)]. The class given is functional. Background: Counterscreens check selectivity or assay interference.

A short description of test [18]: luciferase reporter signal reduction – luminescence, H4-C neuroglioblastoma cells, dose response (AID 2458).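 Note: H4 neuroglioblastoma cells stably carrying a luciferase reporter gene fusion.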 In kind it is functional, cell-based.
Test [19] has as its target T2, Streptokinase A (Streptococcus pyogenes serotype M1, UniProt P10520).
T2 sequence (P10520 whole entry): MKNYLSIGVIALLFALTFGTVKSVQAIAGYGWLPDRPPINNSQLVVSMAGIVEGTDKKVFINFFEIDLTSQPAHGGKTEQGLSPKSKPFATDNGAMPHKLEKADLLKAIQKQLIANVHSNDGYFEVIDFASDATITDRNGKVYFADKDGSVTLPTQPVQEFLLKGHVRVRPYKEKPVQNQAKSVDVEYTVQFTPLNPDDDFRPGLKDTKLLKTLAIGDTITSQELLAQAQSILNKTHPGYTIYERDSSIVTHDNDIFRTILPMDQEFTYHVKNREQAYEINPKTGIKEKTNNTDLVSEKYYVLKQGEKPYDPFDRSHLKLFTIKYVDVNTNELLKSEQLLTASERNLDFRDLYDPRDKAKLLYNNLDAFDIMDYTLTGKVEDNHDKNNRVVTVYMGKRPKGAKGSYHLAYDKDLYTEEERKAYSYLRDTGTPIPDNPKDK
Briefly: viability-normalized secreted streptokinase activity reduction – plasminogen activation absorbance, OD405, dose response (AID 1914).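 Note: secreted streptokinase activity via plasminogen activation per viability signal from cell pellet.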 The class given is functional, Streptococcus pyogenes M1 GAS.

For test [20], the target named is T3, fMet-Leu-Phe receptor (Homo sapiens, UniProt P21462).
T3 sequence (P21462 whole entry): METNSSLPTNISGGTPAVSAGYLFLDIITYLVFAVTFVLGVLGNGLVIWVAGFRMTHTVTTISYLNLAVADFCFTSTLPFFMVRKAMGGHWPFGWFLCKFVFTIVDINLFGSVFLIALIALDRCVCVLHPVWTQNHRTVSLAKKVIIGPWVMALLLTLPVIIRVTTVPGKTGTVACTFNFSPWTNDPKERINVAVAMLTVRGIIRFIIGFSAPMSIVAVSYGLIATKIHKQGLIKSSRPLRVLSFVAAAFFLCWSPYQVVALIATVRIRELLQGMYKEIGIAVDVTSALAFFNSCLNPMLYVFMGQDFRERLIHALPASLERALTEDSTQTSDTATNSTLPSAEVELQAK
Briefly: formyl peptide receptor binders – dose response (AID 519). The class given is functional.

Test [21] is described as follows: antiviral protection against BTV-induced cell death – arbovirus, BSR cells, confirmation (AID 1250).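 Note: protection from viral cytopathic effect measured as cell viability by ATP luminescence.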 The class given is functional.
Test [22] has as its system Streptococcus sp. 'group A'. The test is described as follows: Streptococcus pyogenes SK(-)GAS viability under kanamycin – luminescence, BacTiterGlo, confirmation, counter-screen for streptokinase expression inhibitor project, dose response (AID 1900). In kind it is functional, organism-based.
Test [23] has as its system Streptococcus. Briefly: GAS UMAA2166 growth inhibition – luminescence, BacTiterGlo, counter-screen for streptokinase expression inhibitor project, dose response (AID 1915).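 Note: potency for reduction of bacterial viability or growth.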 The class given is functional, organism-based.
Test [24] deals with DNA dC->dU-editing enzyme APOBEC-3G (Homo sapiens, UniProt Q9HC16). The class given is functional.
Test [25] addresses DNA dC->dU-editing enzyme APOBEC-3A (Homo sapiens, UniProt P31941). The test is described as follows: Dose Response confirmation of small molecule APOBEC3A DNA Deaminase Inhibitors via a fluorescence-based single-stranded DNA deaminase assay. [Related pubchem assays (depositor defined):AID493011, AID493024]. The class given is functional.
Test [26] relates to HeLa. The test is described as follows: Cytotoxicity counterscreen assay for transcriptional activators of heat shock protein 70 (Hsp70). [Related pubchem assays: 1203, 1252 ]. In kind it is functional. Particulars: Homo sapiens.

Calls of active or inactive are those of the source.

T1 sequence (P08659 whole entry): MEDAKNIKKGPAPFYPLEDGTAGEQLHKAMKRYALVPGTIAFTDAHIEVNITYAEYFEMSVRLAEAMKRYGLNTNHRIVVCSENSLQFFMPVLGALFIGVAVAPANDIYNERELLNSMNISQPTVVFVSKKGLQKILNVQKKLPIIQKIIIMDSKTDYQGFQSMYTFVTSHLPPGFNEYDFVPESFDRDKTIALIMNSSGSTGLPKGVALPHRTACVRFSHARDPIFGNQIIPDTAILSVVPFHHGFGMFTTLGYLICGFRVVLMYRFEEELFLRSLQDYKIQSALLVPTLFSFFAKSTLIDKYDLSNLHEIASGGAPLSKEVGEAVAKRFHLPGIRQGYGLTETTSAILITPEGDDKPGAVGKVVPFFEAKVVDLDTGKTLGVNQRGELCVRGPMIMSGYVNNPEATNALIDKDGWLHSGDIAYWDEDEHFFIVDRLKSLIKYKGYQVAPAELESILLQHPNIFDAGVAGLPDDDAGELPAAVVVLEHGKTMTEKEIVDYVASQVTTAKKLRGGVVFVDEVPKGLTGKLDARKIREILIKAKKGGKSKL
DNA dC->dU-editing enzyme APOBEC-3A, sequence (P31941 whole entry): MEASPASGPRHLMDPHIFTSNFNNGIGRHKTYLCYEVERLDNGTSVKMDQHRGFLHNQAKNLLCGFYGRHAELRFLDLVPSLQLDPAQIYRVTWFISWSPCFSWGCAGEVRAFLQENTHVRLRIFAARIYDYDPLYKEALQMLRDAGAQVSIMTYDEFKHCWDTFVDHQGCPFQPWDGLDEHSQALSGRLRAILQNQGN
DNA dC->dU-editing enzyme APOBEC-3G, sequence (Q9HC16 whole entry): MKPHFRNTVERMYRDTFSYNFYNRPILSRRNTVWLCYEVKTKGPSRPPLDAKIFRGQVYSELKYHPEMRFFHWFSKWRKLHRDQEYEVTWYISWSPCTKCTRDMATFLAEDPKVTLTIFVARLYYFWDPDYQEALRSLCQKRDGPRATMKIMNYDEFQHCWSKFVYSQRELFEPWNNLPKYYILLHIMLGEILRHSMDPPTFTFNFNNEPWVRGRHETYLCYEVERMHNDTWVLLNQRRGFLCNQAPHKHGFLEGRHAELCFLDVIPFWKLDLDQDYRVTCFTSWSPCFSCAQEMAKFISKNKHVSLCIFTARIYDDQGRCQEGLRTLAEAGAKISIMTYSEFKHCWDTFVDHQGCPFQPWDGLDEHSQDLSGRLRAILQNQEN
Mitogen-activated protein kinase 10, sequence (P53779 whole entry): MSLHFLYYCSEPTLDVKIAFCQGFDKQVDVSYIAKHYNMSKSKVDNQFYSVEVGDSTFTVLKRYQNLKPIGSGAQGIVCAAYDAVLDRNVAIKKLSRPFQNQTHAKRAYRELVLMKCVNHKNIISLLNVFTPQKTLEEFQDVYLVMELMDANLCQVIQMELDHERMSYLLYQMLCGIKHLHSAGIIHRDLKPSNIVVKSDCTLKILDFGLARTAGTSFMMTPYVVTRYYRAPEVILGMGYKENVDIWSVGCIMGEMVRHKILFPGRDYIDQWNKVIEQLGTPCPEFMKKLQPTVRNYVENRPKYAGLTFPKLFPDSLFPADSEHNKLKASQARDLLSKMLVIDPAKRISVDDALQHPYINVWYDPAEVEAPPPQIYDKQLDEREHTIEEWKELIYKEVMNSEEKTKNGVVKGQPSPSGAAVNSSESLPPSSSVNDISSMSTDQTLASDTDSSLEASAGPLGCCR

In the case of `COc1ccc(-c2csc(N(C(=O)c3ccccc3Cl)C(C)C)n2)cc1`, the IC50 in test [1] is > 66.6 µM (active). Besides, the results for the CC50 in test [2], in test [3] and in test [4] were 35.5 µM (active), 22.4 µM (active) and 13.5 µM (active), respectively.
As for `CCN1C=CC(=C2C(=O)c3ccccc3C2=O)C=C1`, the AC50 in test [5] is 13.6 µM (active). Also, the EC50 in test [6] is < 0.1 µM (active); in test [8], 10.1 µM (active); in [9] it was 0.247 µM (active); in test [10], > 50 µM (not active); in test [12], 0.317 µM (active); in test [13] it was < 0.1 µM (active). Also, the EC50 was 6.3 µM (active) in test [14], < 0.1 µM (active) in test [15], 1.85 µM (active) in test [16] and 0.324 µM (active) in test [18]. Moreover, the figures for the IC50 in [7], in test [11] and in test [17] were 43.5 µM (not active), > 80 µM (inactive) and 15 µM (not active), respectively.
Turning to `CCOC(=O)c1sc(=S)n2c1[nH]c(=O)c1ccc(C(=O)OC)cc12`, the EC50 in test [19] is > 150 µM (not active); in test [22], 6.34 µM (active); in test [23], 11.5 µM (active). The Ki in test [20] is > 66.7 µM (inactive). Moreover, the IC50 in test [21] was 53 µM (active).
Take `COc1ccc(N=Nc2[nH]c3ccc(C)cc3c2O)cc1`: the IC50 in test [24] is 7.98 µM (active); in test [25] it was 8.35 µM (active). Besides, the CC50 in [26] was > 33 µM (not active).
